Assay results taken from patent US20250213587A1, “ITK INHIBITORS FOR INCREASING TH1 CELL ACTIVITY” (Corvus Pharmaceuticals, Inc., priority 2022, published 2025).
Entries after “also recorded” stand apart in the source; their conditions may differ.

How the values were obtained:
ITK [1] = molecular target: T1, ITK (Homo sapiens, UniProt Q08881); assay: Dialysis assay; type: biochemical; conditions: 24 h dialysis
T1 sequence (Q08881 1-620): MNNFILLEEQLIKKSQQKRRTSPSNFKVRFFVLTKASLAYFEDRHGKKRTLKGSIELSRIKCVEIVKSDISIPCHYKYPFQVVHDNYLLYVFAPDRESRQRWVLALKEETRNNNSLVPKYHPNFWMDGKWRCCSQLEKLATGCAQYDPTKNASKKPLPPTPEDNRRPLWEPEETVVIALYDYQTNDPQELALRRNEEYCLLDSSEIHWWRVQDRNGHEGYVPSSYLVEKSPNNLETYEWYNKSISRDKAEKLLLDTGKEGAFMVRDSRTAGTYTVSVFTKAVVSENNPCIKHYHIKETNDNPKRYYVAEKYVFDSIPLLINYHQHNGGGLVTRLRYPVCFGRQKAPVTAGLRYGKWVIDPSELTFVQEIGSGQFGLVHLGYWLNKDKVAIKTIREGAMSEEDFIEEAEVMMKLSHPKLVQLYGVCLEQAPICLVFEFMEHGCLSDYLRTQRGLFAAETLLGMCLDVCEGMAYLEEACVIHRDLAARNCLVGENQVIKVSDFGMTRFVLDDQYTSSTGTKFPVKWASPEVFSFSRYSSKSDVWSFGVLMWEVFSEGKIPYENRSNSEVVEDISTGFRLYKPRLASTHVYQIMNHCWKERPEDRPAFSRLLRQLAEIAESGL
Procedure: Dialysis was performed at room temperature against the same buffer for 24 hours in a Slide-A-Lyzer dialysis device (10 kDa MWCO) with three changes of the dialysis buffer giving a nominal final dialysis factor of 8×10^6. Un-dialyzed control samples incubated in parallel for 24 hours. ITK activity was measured following dialysis in a continuous sampling format using the microfluidic assay and 300 μM ATP and 2 μM Scrtide peptide substrate. The enzymatic velocity of treated samples was normalized to the appropriate control rate and expressed as a percent.

[2] = system: Th1, Th17, CD4+ effector cells, eosinophils; assay: Blood and tumor cell changes in treated lymphoma patients; type: in vivo, human
[3] = system: bleomycin-induced pulmonary fibrosis; assay: Bleomycin-induced mouse pulmonary fibrosis model; type: in vivo; conditions: 10 and 30 mg/kg QD, day 7-21
ITK [4] = molecular target: T1, ITK; assay: Jump dilution assay; type: binding; design: purchased Invitrogen; conditions: for reversibility of ITK inhibition on dilution: dilution into competitive probe
Procedure: The assay format is similar to the Competitive Tracer-binding Assay and relies on the reversible binding of tracer 236 to recombinant tagged human ITK. […] The mixture was then filtered through a desalting column (Thermo Scientific, Zeba Spin Desalting Column, 40K MWCO) to remove unbound inhibitor. The assay was initiated immediately after the desalting step by diluting the eluate containing the inhibited kinase complex 50-fold into a solution of anti-tag antibody (2 nM final) and excess tracer 236 (40 nM final). Dissociation of inhibitor and binding of tracer was monitored immediately after assay initiation using an EnVision plate reader (excitation 340 nm, dual emission at 665 nm and 615 nm). Reagents including GST-tagged recombinant human ITK, Kinase tracer 236, Lanthascreen Eu-Anti-GST antibody and kinase buffer A were purchased from ThermoFisher Scientific/Invitrogen. Each data point represents the mean of technical triplicates. Equation 3 was fitted to the BMS-509744 data to obtain the rate constant using GraphPad Prism from which the half-life was calculated.

RLK = molecular target: T2, RLK (Homo sapiens, UniProt P42681); assay: Human kinome profiling at 1.0 μM, RLK; type: biochemical; conditions: read-out: percent control, RLK
T2 construct: purchased Invitrogen PV5860
T2 sequence (P42681 whole entry): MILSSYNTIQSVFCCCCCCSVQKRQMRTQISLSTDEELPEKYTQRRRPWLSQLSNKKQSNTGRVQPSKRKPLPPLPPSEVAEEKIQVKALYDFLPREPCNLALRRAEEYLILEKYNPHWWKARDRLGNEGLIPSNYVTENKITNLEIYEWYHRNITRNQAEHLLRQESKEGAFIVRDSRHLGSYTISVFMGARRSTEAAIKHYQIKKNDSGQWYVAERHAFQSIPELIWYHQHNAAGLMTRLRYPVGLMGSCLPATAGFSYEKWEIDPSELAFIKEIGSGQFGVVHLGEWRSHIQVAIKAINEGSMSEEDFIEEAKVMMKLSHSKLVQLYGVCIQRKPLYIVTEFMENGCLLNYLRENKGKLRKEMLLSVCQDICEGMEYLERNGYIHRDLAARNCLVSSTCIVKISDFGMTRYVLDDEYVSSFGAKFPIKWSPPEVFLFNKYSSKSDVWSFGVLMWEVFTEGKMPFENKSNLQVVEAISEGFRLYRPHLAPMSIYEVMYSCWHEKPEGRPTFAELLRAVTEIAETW

ERK phosphorylation = assay: pERK flow cytometry after CD3/28 crosslinking; type: cell-based; conditions: Homo sapiens, mean of three donors
Procedure: PBMCs were pelleted (400×g at 4° C. for 5 minutes) and resuspended in RPMI+10% heat-inactivated fetal bovine serum (FBS) at 14.3×10^6 cells/mL; 70 μL (1×10^6 cells) were plated in a 96 well U bottom plate and incubated at 37° C. for 1 hour. […] CD3-biotin and CD28-biotin were prepared together at 10 μg/mL each, which is 10× the final concentration; 10 μL antibodies were added to the cells and incubated at 37° C. for 15 minutes. Avidin was prepared at 500 μg/mL, which is 10× the final concentration; 10 μL avidin were added to the cells and incubated at 37° C. for 5 minutes to induce TCR crosslinking. A total volume of 100 μL cells were transferred to 200 μL warm 2.4% paraformaldehyde (PFA) in deep well blocks. Pipetting was performed using a liquidator 96 to add reagents to the entire plate with uniform timing. Cells were fixed with PFA at 37° C. for 10 minutes. Cells were pelleted (1000× g for 5 minutes), and the plate was aspirated leaving approximately 100 μL residual volume. The plate was then vigorously vortexed for 10 seconds, and 1 mL −20° C. methanol was added to each well. Cells were stored at […] for approximately 1 month. […] Inhibition was measured by construction of a concentration response curve of the Log base 10 transformed values of the molar concentration of inhibitor. […]

[5] = system: NK cells with anti-CD20 bound Jeko target cells; assay: NK-mediated ADCC; type: cell-based, human; conditions: 1 μM, 18 hours
Procedure: FIGS. 9A-9B show selective Inhibition of ITK preserved NK-mediated ADCC. FIG. 9A: Lymphocyte subsets (5 donors/cell type) were purified from the peripheral blood of 22 healthy donors. The expression of ITK and RLK, relative to the house keeping gene IPO8, were determined by qPCR. FIG. 9B: Peripheral blood NK cells from 7 healthy donors were co-cultured at a 10:1 ratio with anti-CD20 bound target cells (B-cell lymphoma line Jeko) and with inhibitors for 18 hours. Cell lysis was detected by viability dye using flow cytometry. The % dead target cells in samples treated with DMSO were set as the maximum lysis (100%).
NK cells express both ITK and RLK (FIG. 9A). […] Peripheral blood NK cells from 7 healthy donors were co-cultured with an anti-CD20 bound target B-cell line at a ratio of 10:1 for 18 hours in the presence of the inhibitors over a range of concentrations up to 1 μM. Cell lysis was detected by flow cytometry using viability dye staining.

C=CC(=O)N1CCCN(C(=O)c2cc(Sc3cnc(NC(=O)C4CC4)s3)c(C)cc2OC)C[C@H]1C [CPI-818]
ITK activity after extensive dialysis (ITK [1]): kinase activity was not recovered
ITK activity after extensive dialysis (ITK [1]; listed as CP-818): remained inhibited
CD4+ effector cells ([2]; blood and tumor, 200 mg BID): increases
Th17 pro-inflammatory cells ([2]; lymphoma patient): decrease
Th1 cells ([2]; lymphoma patient, blood/tumor): increases
eosinophils ([2]; patient on therapy): decreased while on therapy; also recorded: marked reduction
BALF leukocytes [3]: reduced
lung weight [3]: reduced
persistence of blockade of tracer binding to ITK (ITK [4]; after jump dilution): greater than 24 h
reversibility of ITK inhibition on dilution (ITK [4]): did not dissociate upon dilution
reversibility of ITK inhibition on dilution (ITK [4]; listed as CP-818): irreversible
remaining activity at 1 µM (RLK): 70%
IC50 (ERK phosphorylation): 39 nM
decrease of ADCC [5]: 20%
